Source: ChEMBL document CHEMBL3507680, “University of Dundee, Gates Library screen for HepG2 cell viability”

Experiment: Human HepG2 cell viability assay in 384 well format
Type: toxicity, cell-based
Design: dose 125 nL, time 70.5 hour; cytotoxicity at 70.5 h: concentration not given beside the values
Conditions: HepG2 cells, read-out: Inhibition

SMILES | cytotoxicity at 70.5 h
CC(C)(C)c1n[nH]c(C2CN(CCc3ccncc3)CCO2)n1 (stereo not drawn) | 0.424%
CN(C)C(=O)Cc1ccccc1NCc1cccc2cccnc12 | 57.4%
O=C(C1CCCC1)N1CCN(Cc2ccncc2)[C@@H]2CS(=O)(=O)C[C@@H]21 | -5.83%
Cc1nn(-c2cc(Cl)cc(Cl)c2)c(C)c1CCC(=O)O | -5.45%
O=C(CC1CCCC1)N1CCn2cc(Cn3cccn3)nc2C1 | -11.5%
CCn1cc(NC(=O)NCC(C)(C)N2CCc3ccccc3C2)cn1 | 13.8%
CCN(CC)c1nc2ccsc2c(=O)n1CCC(=O)NC1CCCC1 | -6.51%
CSCC(CCO)Nc1nc(C(F)F)nc2ccccc12 (stereo not drawn) | -7.1%
Cc1nn(C)c(C)c1C1CCCN1Cc1nnc(C2CC2)n1C (stereo not drawn) | -1.77%
CC(C)[C@@H]1CN(Cc2ccsc2)C[C@H]1NS(=O)(=O)N(C)C | 1.27%
O[C@]12CC[C@H](CC1)N(Cc1ccc(F)cc1)C2CN1CCOCC1 (stereo partly drawn) | -7.54%
CCn1nc(C)c(C(=O)Nc2ccc3c(c2)C(C)(C)C(=O)N3C)c1C | -0.0352%
Cc1nc(N(C)C)nc(N(C)Cc2cnccn2)c1C | -9.41%
c1coc(-c2nnc(CN3CCCC3Cn3cncn3)o2)c1 (stereo not drawn) | -1.88%
Cc1ccccc1OCCCC(=O)NC(C)c1nnc2n1CCC2 (stereo not drawn) | -2.09%
CCSc1ccccc1C(=O)NCC1CCN(Cc2ccsc2)CC1 | 2.8%
c1cn(-c2cncc(C3CCNCC3)n2)cn1 | -6.9%
CC(CNC(=O)N1CCN(c2ncccn2)CC1)Cc1cccs1 (stereo not drawn) | 17.5%
Cc1cc(CN2CCN(C(=O)NCc3cccs3)CC2)no1 | -4.63%
COC[C@H]1CC[C@H]2[C@H](CCN2C(=O)c2ccncc2F)O1 | -0.359%
O=C(O)c1ccnc(SCc2ccccc2)c1 | 32.7%
COCCN1CCCC2(CCN(c3nc(C)nc4c3CCC4)C2)C1=O (stereo not drawn) | -4.89%
CC1(C)CN(Cc2cc(C3CCCCC3)no2)CC[C@]1(C)O | -12.5%

SMILES | cytotoxicity at 70.5 h
CN(Cc1ncnn1C)C1CCN(c2sccc2C#N)C1=O (stereo not drawn) | -1.7%
Cc1cc(C)n(CC2CN(Cc3noc(C4CC4)n3)CCO2)n1 (stereo not drawn) | -6.69%
COCC1CN(Cc2ccc(OC)cc2)S(=O)(=O)c2cnccc2O1 (stereo not drawn) | -3.12%
O=C(c1cncs1)N1CCCC1c1ccn[nH]1 (stereo not drawn) | -3.39%
CCS(=O)(=O)N1CCc2ccc(NC(=O)Nc3cccc(C#N)c3)cc21 | 17.6%
CC(Cn1cccn1)NCCS(=O)(=O)c1ccccc1 (stereo not drawn) | -8.75%
Cc1cc2n(n1)CC(CNC1CCN(C(=O)c3ccco3)CC1)CN2 (stereo not drawn) | -6.69%
Cc1cnc(C)c(N2CCC(c3nnc(CN(C)C)n3C3CC3)CC2)n1 | 11.2%
Cc1cccc(S(=O)(=O)NCC(C)N2CCN(C)CC2)c1Cl (stereo not drawn) | -1.95%
Cc1cc(N2CCC(O)CC2)nc(C)n1 | 1.14%
CC(NCCCC#N)c1ccc(S(C)(=O)=O)c(F)c1 (stereo not drawn) | 9.59%
COc1cc(CCC(=O)NC2CCN(C)CC2)ccc1OCC(F)(F)F | -7.75%
Cc1cc(C)c(CNC(=O)N2CCCC2c2cccc(F)c2)c(=O)[nH]1 (stereo not drawn) | 26%
COCCNC(=O)[C@@]12CCO[C@@H]1CCN(Cc1scnc1C)C2 | -2.1%
O=C(CCOc1cccc(F)c1)N1CCCC(n2cncn2)C1 (stereo not drawn) | -6.87%
Cc1ccc(C(=O)NC2CCN(C(=O)Nc3ccncc3)CC2)o1 | -13.5%
COCC1CCN(S(=O)(=O)NCC2COc3ccccc3C2)CC1 (stereo not drawn) | 13.9%
CCc1nnc2n1CCN(C(=O)c1ccc3nc(C)c(C)nc3c1)C2 | 1.25%
Cc1nc(-c2ccccc2)ccc1C(=O)N1CCN(CCO)CC1 | -1.89%
O=C(Nc1cccc(CN2CCOC2=O)c1)N1CCCCCC1 | 35.8%
CCNC(=O)CN1CCN(c2cc(C)nc(-c3ccncc3)n2)CC1 | -0.76%
Cc1nn(C)c(Cl)c1C1CCCN1Cc1cccc(C(N)=O)c1 (stereo not drawn) | -10.9%
c1cc2occc2c(N2CCCC(c3nncn3C3CC3)C2)n1 (stereo not drawn) | 17.6%

SMILES | cytotoxicity at 70.5 h
Oc1cc(C2CCCCN2C2CCCC2)nc(-c2ccncc2)n1 (stereo not drawn) | -14.1%
CC(=O)N1CCCn2nc(CNC(=O)N3CCCCC3)cc2C1 | 19.2%
Cc1ncc(CN2CCOC(CNc3cccnn3)C2)s1 (stereo not drawn) | 2.68%
Cc1cc(C)n(C2CCCN(C(=O)c3ccc(F)c(F)c3)C2)n1 (stereo not drawn) | 9.19%
CN(Cc1ccsc1)C(=O)c1ccc(C2CCCO2)s1 (stereo not drawn) | 30.9%
Cc1cc(C)n(C2CN(CCc3ccncc3)C2)n1 | 42.3%
Cc1cc(C)c2nc(CN3CCC(CN)CC3)cc(O)c2c1 | 2.77%
CCc1cnc(C)nc1N1CCN(Cc2ccc(-c3cc[nH]n3)o2)CC1 | 9.84%
Cc1cc(C2CCCN(C(=O)c3cnn(C)c3)C2)ccn1 (stereo not drawn) | -8.77%
CC(=O)NCC(=O)N1CCC(C2CCN(Cc3ccc(Cl)cc3)C2)CC1 (stereo not drawn) | -2.13%
CCCNC(=O)c1cc2c(s1)CCN2C(=O)CN(C)C | -14.4%
CC(=O)N1CCC(c2cnc(-c3c(C)n[nH]c3C)cn2)CC1 | -3.69%
CCC(C)NC(=O)c1cncc(Br)c1 (stereo not drawn) | -2.39%
Cc1cccc2c1NC(c1cnc(C3CCC3)s1)NC2=O (stereo not drawn) | -18.5%
O=C(Nc1cccnc1)Nc1ccn(CC(F)F)n1 | 7.38%
CCn1ccnc1CN1CCN(C(C)C(=O)N2CCC(C)CC2)CC1 (stereo not drawn) | 3.72%
C1CN(CCN2CCOCC2)CCN1 | -0.136%
COc1ccccc1C(NC(=O)CN(C)C(C)C)c1noc(C)n1 (stereo not drawn) | -2.25%
CC(=O)NCc1ccc(C(=O)N2CCCCC2Cn2cccn2)o1 (stereo not drawn) | 8.35%
Oc1ccc(-c2c(-c3ccccc3)ncn2C2CCNC2)cc1 (stereo not drawn) | 6.28%
CC(C)(C)CC(=O)NCC(=O)NCC(O)c1ccc2ccccc2c1 (stereo not drawn) | 4.11%
O=C(c1ccoc1)N1CCOC2(COCCN(c3ncccn3)C2)C1 (stereo not drawn) | -7.67%
Cc1noc(C)c1C(=O)NCc1ccnc(OCC(F)(F)F)c1 | -0.701%

SMILES | cytotoxicity at 70.5 h
COc1cccc(CN2CCc3nc(C(=O)NCC(C)C)sc3CC2)c1 | 10.6%
COc1c(C2CCCN2Cc2nnc(C3CC3)n2C)c(C)nn1C (stereo not drawn) | -5.73%
CN(Cc1ccc2c(c1)OCCO2)Cc1nnnn1-c1ccccc1 | -17.2%
CNC(=O)c1ccc(CNc2ccncc2Cl)cc1 | -98.3%
COCC1CN(C(=O)Nc2cc(C(F)(F)F)ccc2F)CCO1 (stereo not drawn) | -5.23%
CC(C)c1ccc(S(=O)(=O)NC2CCN(CC(F)(F)F)C2)cc1 (stereo not drawn) | 16.7%
CC(C(=O)Nc1sccc1C(N)=O)N(C)CCOc1ccccc1 (stereo not drawn) | -20.6%
COc1cccc(CN2CC[C@H](NC(C)=O)[C@@H](O)CC2)c1F | -1.47%
CC(O)CN1CCC(CN(C)Cc2ccc(C(N)=O)cc2)CC1 (stereo not drawn) | -9.95%
CCOC(=O)C1(Cc2cccc(OC)c2)CCCN(Cc2ncc[nH]2)C1 (stereo not drawn) | 22%
O=C(c1ccc[nH]1)N1CCOCC2(CCN(C3CCOCC3)C2)C1 (stereo not drawn) | -19%
CC(C)c1nnc(NCc2cc3n(n2)CCNC3)s1 | -8.56%
N#Cc1c(Cl)nsc1NCc1ccc(N2CCSCC2)cc1 | 12.7%
Cc1nnc(C(C)N2CCc3[nH]c4ccccc4c3C2)o1 (stereo not drawn) | -4.16%
CNC(=O)N1CCC2(CC1)CN(C(C)C)Cc1cc(F)ccc12 | -2.71%
NC(=O)c1cccc(CCNCc2cnc(-c3cccs3)s2)c1 | -12.1%
c1cncc(COCC2CC[C@H]3[C@H]2OCCN3Cc2ccoc2)c1 (stereo partly drawn) | 11.3%
Cc1nc(N2CCOCC2)ncc1-c1cc(O)nc(N2CCCC2)n1 | -2.77%
O=c1c(-c2ccnc(N3CCCC[C@@H]3CO)n2)cnc2sccn12 | -4.35%
O=C(c1ccc(Cl)cc1)N1CCn2c(nn(-c3ccc(Cl)cc3)c2=O)C1 | -1.63%
Cc1ncc(-c2ccnc(NCCO)n2)c(C2CCCCC2)n1 | 21.9%
CCOc1ncccc1C(=O)N1CCCC1c1c(C)nn(C)c1Cl (stereo not drawn) | 11.9%
Cc1nc(C)c(C(=O)NCCOc2ccc(C(F)(F)F)cn2)o1 | -3.32%

SMILES | cytotoxicity at 70.5 h
CCn1cc(CN(C)c2nc(C)c3ccc(S(C)(=O)=O)cc3n2)cn1 | -5.64%
N#Cc1cc(F)c(NCCc2ccc(S(N)(=O)=O)cc2)c(F)c1 | -2.35%
Cc1nc(C)c(CCNc2ccc(S(N)(=O)=O)cc2C#N)s1 | -15%
CCCc1nnc(NCCc2noc(C3CC3)n2)o1 | -9.24%
CCc1nnc2n1CCN(C(=O)c1ccccc1OCC1CC1)C2 | 0.159%
COc1ccc(-c2cnc(CN(CC(N)=O)C3CCCC3)o2)cc1 | -11.2%
CCOc1ncccc1C(=O)N1CCC(Nc2ccc(C)nn2)CC1 | -2.98%
COc1cccc(-n2nnc(C(=O)N3CCN(C(C)=O)CC3)c2C)c1 | -6.81%
CCc1nnc2n1CCN(C(=O)c1ccc3[nH]cnc3c1)C2 | 4.85%
O=C(N1CCCC1)N1CCO[C@H]2[C@@H](Oc3ccccn3)CC[C@@H]21 | -6.73%
CCn1c(Cn2cncn2)nnc1C1CCN(C[C@H]2[C@@H]3CNC[C@@H]32)CC1 | -20.4%
NC(=O)c1c[nH]nc1NCc1ccc2c(c1)OCO2 | -18.7%
O=C(c1ccncn1)N1CCC[C@]2(C[C@H](OCC3CC3)CO2)C1 | -15.2%
O=C1CC[C@H]2[C@H](CCN2C(=O)C2CCCO2)N1Cc1cccnc1 (stereo partly drawn) | -6.99%
Cc1csc(CNCC(C)c2nc3ccccc3o2)n1 (stereo not drawn) | 15%
Cc1cnn(CC2CCCCN2Cc2nnc(C3CC3)n2C)c1 (stereo not drawn) | -6.92%
Cc1nnc2n1CCN(C(=O)CN1C(=O)CSc3ccccc31)C2 | -3.59%
N#Cc1cccc(C(=O)N2CC[C@H]3[C@H]2CCN3CC2CCOCC2)c1 | 26.3%
Cc1ncsc1C(=O)N1CCN(Cc2cscn2)CC1 | -1.83%
CC(C)(C)n1ncc2c1CCCC2NCc1cccc2c1OCCO2 (stereo not drawn) | -7.2%
Cc1cccc(C(=O)N2C[C@H]3CC[C@@H]2CN(S(=O)(=O)N(C)C)C3)n1 | -10.2%
